Reference: US4283538A, “Novel triarylmethane compounds” (Polaroid Corporation, priority 1979, dated 1981)

Tests used:
Assay type in all cases: physicochemical
[1] = Transmission densities (R, G, B) of image-receiving components containing the dye before and after bleaching with aqueous 1 N KOH; settings: for Transmission Density Before Bleaching, B / Transmission Density After Bleaching, B: blue; for Transmission Density Before Bleaching, G / Transmission Density After Bleaching, G: green; for Transmission Density Before Bleaching, R / Transmission Density After Bleaching, R: red
Description: Using appropriate solvents, samples of the dye compounds prepared in Examples 12, 13, 24 and 26 were incorporated into the image-receiving layer 3 of four image-receiving components comprising the structure set forth below by mixing the solution of each compound with a solution of the graft copolymer and coating this mixture on top of the timing layer to complete each of the image-receiving components.
A transparent 4 mil polyethylene terephthalate film base coated with, in succession:
1. as a polymeric acid layer, a mixture of about 9 parts of a partial butyl ester of polyethylene/maleic anhydride copolymer and 1 part of polyvinyl butyral coated at a coverage of about 2,500 mgs./ft.^2 ;
2. a timing layer containing a 14:1 ratio of a 60-30-4-6 tetrapolymer of butylacrylate, diacetone acrylamide, styrene and methacrylic acid and polyvinyl alcohol at a coverage of 500 mgs./ft.^2 ;
3. a graft copolymer of 4-vinylpyridine and vinylbenzyltrimethylammoniumchloride grafted on hydroxyethyl cellulose in a weight ratio of 2.2/1/2.2, respectively, coated at a coverage of 300 mgs./ft.^2 to provide an imagereceiving layer and containing the selected dye compound at a coverage of 22 mgs./ft.^2.
Each of the image-receiving components containing the respective dye compounds were placed on a piece of gelatin coated Mylar, and the transmission densities for red (R), green (G) and blue (B) were recorded on a transmission densitometer. Then several drops of aqueous 1 N KOH were added to each gelatin sheet, and the image-receiving components were lightly pressed against the gelatin sheets to "bleach" the dye compounds. […]

[2] = Decolorization of methanol solution added to aqueous 1 N KOH
[3] = Persistence of colorlessness on acidification to pH 1 after decolorization in aqueous 1 N sodium hydroxide; settings: methanol solution decolorized with aqueous 1 N NaOH, then aqueous HCl to pH 1
Description: As discussed above and also in the aforementioned application, the subject compounds have the ability to decolorize completely and irreversibly in base by undergoing an irreversible cleavage reaction within a predetermined time at a predetermined pH to give a new colorless compound which remains colorless at the pH's normally encountered during processing subsequent to "bleaching" so that the new compound may be retained in a photographic film unit, e.g., a photosensitive element without the possibility of color reappearing in time. In this regard, samples of the compounds prepared in Examples 24 and 26 above were dissolved in a small amount of methanol, and aqueous 1 N sodium hydroxide was added to each solution to decolorize the compound.

[4] = Bleaching rate (T1/2) in pH=12 aqueous buffer, visible spectrometer; settings: selected wavelength for optical density recording, pH=12 buffer
Experimental: Also, the "bleaching" rates for the compounds of Examples 21, 23 and 24 were determined at pH=12 in terms of T1/2. By T1/2 is meant the time measured for one-half of the colored compound to decolorize. In making these determinations, a cell containing about 3 ml of pH=12 buffer (aqueous) was placed in a visible spectrometer. A sample of each compound was dissolved in methanol, and a small amount (less than 0.1 cc) of each solution was injected into the buffer. The optical densities were then recorded at a selected wavelenth value to determine T1/2.

[5] = coating stored for over 3 months
[6] = coating stored for over 3 months, bleaching time about 3 minutes, aqueous 1 N KOH
[7] = 15 to 60 seconds after aqueous 1 N KOH
[8] = dye 22 mgs./ft.^2 in image-receiving layer
[9] = dye 22 mgs./ft.^2 in image-receiving layer, densitometer set at 0.00 with two gelatin coated mylar

Transmission Density After Bleaching, B [1, 7]	Transmission Density Before Bleaching, B [1, 8]	Transmission Density After Bleaching, G [1, 7]	Transmission Density Before Bleaching, G [1, 8]	Transmission Density After Bleaching, R [1, 7]	Transmission Density Before Bleaching, R [1, 9]	Wavelength (λmax-nm) [4]	Compound	also measured
.00	.09	.01	.32	.01	.21		COC1=CC(=C(c2cc3c4c(c2)CCCN4CCC3)c2ccccc2S(=O)(=O)N(C)C(=O)OCCS(C)(=O)=O)C=C(OC)C1=O [Example 13]	
						640 nm	COC1=CC(=C(c2cc(OC)c(O)c(OC)c2)c2ccccc2S(=O)(=O)N(C)C(=O)OCCS(C)(=O)=O)C=C(OC)C1=O [Example 21]	
.00	.40	.00	.00	.01	.00	590 nm	CC1=CC(=C(c2cc(C)c(O)c(C)c2)c2ccccc2S(=O)(=O)N(C)C(=O)OCCS(C)(=O)=O)C=C(C)C1=O [Example 24]	color after decolorization and acidification to pH 1 [3]: remained colorless even at pH 1

The remaining lines, values behind:

Compound	Transmission Density After Bleaching, B [1, 7]	Transmission Density Before Bleaching, B [1, 8]	Transmission Density After Bleaching, G [1, 7]	Transmission Density Before Bleaching, G [1, 8]	Transmission Density After Bleaching, R [1, 7]	Transmission Density Before Bleaching, R [1, 9]	Wavelength (λmax-nm) [4]	also measured
CN(C(=O)OCCS(C)(=O)=O)S(=O)(=O)c1ccccc1C(=C1C=C(C(O)(C(F)(F)F)C(F)(F)F)C(=O)c2ccccc21)c1cc2c3c(c1)CCCN3CCC2 [Example 26]								Transmission Density Before Bleaching, B [1, 5]: .05; Transmission Density After Bleaching, B [1, 6]: .02; Transmission Density Before Bleaching, G [1, 5]: .06; Transmission Density After Bleaching, G [1, 6]: .00; Transmission Density Before Bleaching, R [1, 5]: .19; Transmission Density After Bleaching, R [1, 6]: .02; time to decolorize (in words) [2]: substantially instantaneously; color after decolorization and acidification to pH 1 [3]: remained colorless even at pH 1
COC1=CC(=C(c2cc(OC)c(O)c(OC)c2)c2ccccc2S(=O)(=O)N(C)C(C)=O)C=C(OC)C1=O [Example 23]							640 nm	
CC(=O)N(C)S(=O)(=O)c1ccccc1C(=C1C=C(C(O)(C(F)(F)F)C(F)(F)F)C(=O)c2ccccc21)c1cc2c3c(c1)CCCN3CCC2 [Example 9]								time to decolorize [2]: approximately 5 seconds
COC1=CC(=C(c2ccc(N3CCOCC3)cc2)c2ccccc2S(=O)(=O)N(C)C(=O)OCCS(C)(=O)=O)C=C(OC)C1=O [Example 12]	.00	.45	.01	.31	.02	.00		
